Measured values as given in the NIST ThermoML archive (doi:10.1016/j.jct.2015.09.029).

Test: mn = molality of the nth substance listed, in mol/kg
Conditions: 100 kPa, Liquid; for viscosity: Capillary tube (Ostwald / Ubbelohde) method; for speed of sound: Frequency=2 MHz, Linear variable-path acoustic interferometer; for mass density: Vibrating tube method

CCCC[P+](CCCC)(CCCC)CCCC.[Cl-] [tetrabutylphosphonium chloride] + O
Conditions | mass density [kg/m3] | speed of sound [m/s] | viscosity [mPa·s]
298.15 K, m1 = 0.0249 | 996.83 | 1506.4 | 0.9234
298.15 K, m1 = 0.0773 | 996.44 | 1520 | 0.9925
298.15 K, m1 = 0.1592 | 995.93 | 1541.6 | 1.101
298.15 K, m1 = 0.2659 | 995.41 | 1567.7 | 1.241
298.15 K, m1 = 0.3842 | 994.99 | 1593.7 | 1.397
298.15 K, m1 = 0.4509 | 994.8 | 1607.4 | 1.486
298.15 K, m1 = 0.504 | 994.67 | 1617.5 | 1.556
298.15 K, m1 = 0.5771 | 994.5 | 1630.3 | 1.652
303.15 K, m1 = 0.0249 | 995.41 | 1518.2 | 0.8256
303.15 K, m1 = 0.0773 | 994.97 | 1532.4 | 0.8843
303.15 K, m1 = 0.1592 | 994.37 | 1551.9 | 0.9761
303.15 K, m1 = 0.2659 | 993.73 | 1575.2 | 1.095
303.15 K, m1 = 0.3842 | 993.17 | 1598.2 | 1.228
303.15 K, m1 = 0.4509 | 992.9 | 1610.1 | 1.302
303.15 K, m1 = 0.504 | 992.7 | 1619.5 | 1.362
303.15 K, m1 = 0.5771 | 992.42 | 1633.2 | 1.444
308.15 K, m1 = 0.0295 | 993.74 | 1529.8 | 0.7476
308.15 K, m1 = 0.0842 | 993.23 | 1541.2 | 0.7998
308.15 K, m1 = 0.1722 | 992.52 | 1559.9 | 0.8836
308.15 K, m1 = 0.2979 | 991.68 | 1585.8 | 1.004
308.15 K, m1 = 0.3554 | 991.35 | 1595.6 | 1.058
308.15 K, m1 = 0.4266 | 990.98 | 1607.8 | 1.126
308.15 K, m1 = 0.4508 | 990.86 | 1611.9 | 1.149
308.15 K, m1 = 0.5619 | 990.34 | 1628.9 | 1.255
313.15 K, m1 = 0.0295 | 991.9 | 1537.3 | 0.6773
313.15 K, m1 = 0.0842 | 991.36 | 1547.8 | 0.722
313.15 K, m1 = 0.1722 | 990.57 | 1566.5 | 0.7937
313.15 K, m1 = 0.2979 | 989.61 | 1588.4 | 0.8964
313.15 K, m1 = 0.3554 | 989.21 | 1597.3 | 0.9432
313.15 K, m1 = 0.4266 | 988.76 | 1607.8 | 1.001
313.15 K, m1 = 0.4508 | 988.61 | 1611.4 | 1.021
313.15 K, m1 = 0.5619 | 987.95 | 1627.3 | 1.112

CCCC[P+](C)(CCCC)CCCC.COS(=O)(=O)[O-] [tributylmethylphosphonium methyl sulfate] + O
Conditions | mass density [kg/m3] | speed of sound [m/s] | viscosity [mPa·s]
298.15 K, m1 = 0.0282 | 997.65 | 1504.7 | 0.9199
298.15 K, m1 = 0.0438 | 997.98 | 1507.9 | 0.9362
298.15 K, m1 = 0.0564 | 998.25 | 1510.3 | 0.9494
298.15 K, m1 = 0.0658 | 998.45 | 1512.1 | 0.9592
298.15 K, m1 = 0.0847 | 998.86 | 1515.5 | 0.9789
298.15 K, m1 = 0.113 | 999.46 | 1520.9 | 1.009
298.15 K, m1 = 0.174 | 1000.77 | 1533.3 | 1.073
298.15 K, m1 = 0.2336 | 1002.05 | 1545.1 | 1.135
298.15 K, m1 = 0.2813 | 1003.07 | 1554.3 | 1.185
303.15 K, m1 = 0.0282 | 996.22 | 1517.7 | 0.8225
303.15 K, m1 = 0.0438 | 996.54 | 1521.6 | 0.8362
303.15 K, m1 = 0.0564 | 996.8 | 1524.6 | 0.8473
303.15 K, m1 = 0.0658 | 996.99 | 1526.7 | 0.8555
303.15 K, m1 = 0.0847 | 997.38 | 1530.7 | 0.8722
303.15 K, m1 = 0.113 | 997.96 | 1536.2 | 0.8971
303.15 K, m1 = 0.174 | 999.21 | 1547.8 | 0.951
303.15 K, m1 = 0.2336 | 1000.44 | 1558.6 | 1.004
303.15 K, m1 = 0.2813 | 1001.42 | 1566.7 | 1.046
308.15 K, m1 = 0.0282 | 994.58 | 1527.2 | 0.7395
308.15 K, m1 = 0.0438 | 994.89 | 1530.9 | 0.7505
308.15 K, m1 = 0.0564 | 995.14 | 1533.7 | 0.7595
308.15 K, m1 = 0.0658 | 995.32 | 1535.9 | 0.7662
308.15 K, m1 = 0.0847 | 995.7 | 1539.9 | 0.7796
308.15 K, m1 = 0.113 | 996.25 | 1545.9 | 0.7997
308.15 K, m1 = 0.174 | 997.45 | 1557.5 | 0.8432
308.15 K, m1 = 0.2336 | 998.62 | 1568.4 | 0.8857
308.15 K, m1 = 0.2813 | 999.56 | 1576.3 | 0.9199
313.15 K, m1 = 0.0282 | 992.74 | 1536.3 | 0.6725
313.15 K, m1 = 0.0438 | 993.04 | 1540 | 0.6832
313.15 K, m1 = 0.0564 | 993.27 | 1542.7 | 0.6919
313.15 K, m1 = 0.0658 | 993.45 | 1544.8 | 0.6983
313.15 K, m1 = 0.0847 | 993.81 | 1548.8 | 0.7113
313.15 K, m1 = 0.113 | 994.34 | 1554.2 | 0.7308
313.15 K, m1 = 0.174 | 995.49 | 1564.7 | 0.7728
313.15 K, m1 = 0.2336 | 996.62 | 1572 | 0.814
313.15 K, m1 = 0.2813 | 997.52 | 1578 | 0.847
